Laboratory results taken from US12617779B2, “Self degradation-type CDK9 inhibitor prodrug and liposome encapsulating same” (Sumitomo Pharma Co., Ltd., priority 2021, dated 2026).

Assay: Liposome encapsulation test, remote loading method (Experimental Example 4);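 on Encapsulation efficiency: encapsulated compound as percent of compound amount introduced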
Type: physicochemical
Conditions: Compound concentration when encapsulated 10 mg/mL
Description: For Example 1, Example 2, Example 3, Example 4, Example 5, Example 6, Example 7, Example 8, Example 9, Example 10, Example 11, Example 12, Example 13, Example 14, Example 15, Example 16, Example 17 and Alvocidib, an encapsulation test in liposomes was performed using a remote loading method.
<Liposome Encapsulation Test of Example 1, Example 2, Example 5, Example 6, Example 9, Example 10, Example 11, Example 12, Example 13, Example 14, Example 15, and Example 16>
Hydrogenated soybean phosphatidylcholine (COATSOME NC-21E, manufactured by NOF CORPORATION, 7.77 g), cholesterol (manufactured by Sigma, 2.78 g) and distearoylphosphatidylethanolamine-methoxypolyethylene glycol 2000 (SUNBRIGHT DSPE-020CN, manufactured by NOF CORPORATION, 2.47 g) were dissolved in tert-butyl alcohol (720 mL) warmed to 65° C. The solution was placed in an eggplant flask and frozen in a dry ice-acetone bath, and then the tert-butyl alcohol was removed by evaporation under reduced pressure to give a lipid mixture.
To the above lipid mixture was added a 250 mM ammonium sulfate solution (240 mL), and the mixture was warmed to 65° C., and dispersed by a homogenizer (ULTRA-TURRAX, manufactured by IKA) to give a crude liposome dispersion. Then, the crude liposome dispersion was dispersed by a high pressure homogenizer (Nano-Mizer NM2, manufactured by YOSHIDA KIKAI CO., LTD.) at a pressure of 100 MPa to give liposomes with an average particle size (Z-average) of about 80 nm. The liposome outer solution was replaced with 10 mM L-histidine/10% sucrose solution (pH 6.5) using a dialysis cassette (Slide-A-Lyzer G2 Dialysis Cassettes 20K MWCO, manufactured by Thermo Scientific) to give an empty liposome solution. The solution was filtered through a 0.22 μm membrane filter, and a 10 mM L-histidine/10% sucrose solution (pH 6.5) was added thereto to adjust the total lipid concentration to 50 mM (50 μmol/mL). The lipid concentration was determined by quantitatively analyzing cholesterol using HPLC and calculating the total lipid concentration from the lipid mixing ratio. The amount for the above adjustment was increased or decreased as appropriate.
The compound (10 mg) was weighed, and the empty liposome solution (1 mL) with a total lipid concentration of 50 mM was added thereto. The solution was adjusted to pH 5 to 6 with 1 mol/L hydrochloric acid or 1 mol/L aqueous sodium hydroxide solution as necessary, warmed in a 65° C. water bath for 2 to 3 minutes, and ice-cooled. The mixture was centrifuged at 15,000×g for 5 minutes to precipitate and remove insoluble substances.
The liposome solution (100 μL) after removing insoluble substances was taken on an ultrafiltration filter (Amicon Ultra, 100K, 0.5 mL, manufactured by Merck) and centrifuged at 4° C., 15,000×g for 10 minutes. The compound concentrations in the liposome solution after removing insoluble substances and in the filtrate after ultrafiltration were determined by HPLC, and the encapsulation rate, encapsulation efficiency, and encapsulated compound content per 50 μmol of lipid were calculated by the following formula.
The measurement conditions for HPLC are as follows.
An empty liposome solution with a total lipid concentration of 75 mM was prepared by the same procedure as for the above example compound group. Each compound was weighed, and the empty liposome solution with a total lipid concentration of 75 mM was added thereto such that the compound concentration became 15 mg/mL. The solution was adjusted to pH 5 to 6 with 1 mol/L hydrochloric acid or 1 mol/L aqueous sodium hydroxide solution, warmed in a 65° C. water bath for 3 minutes, and ice-cooled. Hereafter, the encapsulation rate and encapsulation efficiency were calculated by the same procedure as for the above example compound group. The encapsulated compound content per 50 μmol of lipid was calculated by the following formula.
[formula] <Liposome Encapsulation Test of Example 7, Example 8 and Example 17> […]

| SMILES | Encapsulated compound content per 50 μmol of lipid [mg] | Encapsulation efficiency [%] | Encapsulation rate [%] |
| --- | --- | --- | --- |
| CN1CC[C@H](c2c(OC(=O)N(Cc3ccccc3)CC3CCCCN3)cc(O)c3c(=O)cc(-c4ccccc4Cl)oc23)[C@H](O)C1 (stereo partly drawn) [Example 15, 2-(2-chlorophenyl)-5-hydroxy-8-[(3S,4R)-3-hydroxy-1-methylpiperidin-4-yl]-4-oxo-4H-1-benzopyran-7-yl benzyl [(piperidin-2-yl)methyl]carbamate] | 2.2 | 22.2 | 23.6 |
| CCN(CCC1CCCCN1)C(=O)Oc1cc(O)c2c(=O)cc(-c3ccccc3Cl)oc2c1[C@H]1CCN(C)C[C@H]1O (stereo partly drawn) [Example 16, 2-(2-chlorophenyl)-5-hydroxy-8-[(3S,4R)-3-hydroxy-1-methylpiperidin-4-yl]-4-oxo-4H-1-benzopyran-7-yl ethyl[2-(piperidin-2-yl)ethyl]carbamate] | 2.2 | 21.7 | 20.7 |
